# Reference: patent US11850254B2, “Tryptamine compositions for enhancing neurite outgrowth” (TURTLE BEAR HOLDINGS, LLC, priority 2019, dated 2023)
# Entries after “also recorded” stand apart in the source; their conditions may differ. Read-outs that look alike come from different tables or passages of the source.
# Columns and labels:
# [1] = test system: PC12 cells treated with conditioned media from 1321N1 human astrocytoma cells; assay: Neurite outgrowth of PC12 cells treated with conditioned media from 1321N1 cells; type: cell-based, rat; settings: conditioned media from treated 1321N1 cells; FIG. 11, n=3
# Source text: Although the assay aimed to explore potential synergistic effects of combining HE and psilocybin analogs, this was not clearly observed. […] 1321N1 human brain astrocytoma cells are known to excrete neurologically beneficial compounds when stimulated with neurotrophic compounds and fungal extracts including lion's mane (Mori et al., Biological and Pharmaceutical Bulletin, 9: 1727-1732 (2008)). While some fungi have well established mechanisms by which they benefit neurological health, little is known about the role of psilocybin analogs specifically. Generally following the protocol of Mori et al., 2008, 1321N1 human astrocytoma cells were treated with psilocybin analogs, and conditioned media was collected and applied to differentiated rat pheochromocytoma PC12 cells to determine the resulting impact on neurite outgrowth.
# [2] = test system: humans; settings: cited from earlier work
# [3] = test system: anti-inflammatory cytokine IL-10 in human 1321N1 brain cells; assay: ELISA of IL-10 in 1321N1 cells; type: cell-based
# Source text: (§1) See Ly et al., “Psychedelics Promote Structural and Functional Neural Plasticity,” Cell Rep.
# [4] = test system: cortical neurons from rat embryo; assay: Neurite outgrowth and length in cultured neurons (Neurofit), tubulin immunostaining, High-Content Screening; settings: versus vehicle control, at the concentrations tested
# [5] = molecular target: 5-HT2A receptor (Homo sapiens, UniProt P28223); settings: cited from earlier work
# 5-HT2A receptor, sequence (P28223 whole entry): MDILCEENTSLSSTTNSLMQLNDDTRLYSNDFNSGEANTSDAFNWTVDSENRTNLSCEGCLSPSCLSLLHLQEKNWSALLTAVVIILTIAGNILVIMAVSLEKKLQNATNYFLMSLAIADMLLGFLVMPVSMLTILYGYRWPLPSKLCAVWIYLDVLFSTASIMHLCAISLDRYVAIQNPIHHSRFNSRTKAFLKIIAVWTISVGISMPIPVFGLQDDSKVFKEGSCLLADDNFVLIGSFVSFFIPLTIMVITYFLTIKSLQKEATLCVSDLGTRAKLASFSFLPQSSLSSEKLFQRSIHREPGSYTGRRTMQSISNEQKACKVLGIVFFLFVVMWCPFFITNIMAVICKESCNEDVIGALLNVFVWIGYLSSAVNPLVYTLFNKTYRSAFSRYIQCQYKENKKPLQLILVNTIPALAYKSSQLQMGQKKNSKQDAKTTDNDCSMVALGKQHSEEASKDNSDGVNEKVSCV
# [6] = test system: neurogenesis; settings: Ly et al. 2018; cited from earlier work
# [7] = test system: nerve growth factor (NGF) protein in human 1321N1 brain cells; assay: ELISA of NGF protein in 1321N1 cells; type: cell-based; settings: compared to a vehicle control; n=3; p<0.05
# Source text: Accordingly, preliminary research has started to reveal the mechanisms by which psilocybin analogs may confer neurotrophic benefits that facilitate neurite outgrowth.
# as §1
# [8] = test system: human U87 cells; settings: Zhang et al. 2020; cited from earlier work
smiles,measurement,setting,value
"CNCCc1c[nH]c2cccc(OP(=O)(O)O)c12 [baeocystin, 4-phosphoryloxy-N-methyltryptamine]",neurite outgrowth in PC12 cells,[1],induce neurite outgrowth
same,hallucinogenic effect,"[2]; 4 mg consumed, Gartz 1991",gentle hallucinogenic experience
same,potency and psychotropic effects,[2]; Gartz 1997,roughly akin to psilocybin
same,hallucinogenic effect,[2]; oral consumption of 10 mg and 20 mg,did not produce any hallucinogenic effects
"CNCCc1c[nH]c2cccc(O)c12 [norpsilocin, 4-hydroxy-N-methyl-tryptamine]",neurite outgrowth in PC12 cells,[1],induce neurite outgrowth
same,expression of the anti-inflammatory cytokine IL-10,[3],induces the expression
same,"neurite outgrowth, in words",[4],did not perform better than vehicle control
"COc1cc(C[C@@H](C)N)c(OC)cc1I [(R)-2,5-dimethoxy-4-iodoamphetamine]",5-HT2A receptor activation,[5],activate the 5-HT2A receptor
"CN(C)CCc1c[nH]c2ccccc12 [dimethyltryptamine, N,N-dimethyltryptamine]",neurogenesis,[6],promoted neurogenesis
"NCCc1c[nH]c2cccc(OP(=O)(O)O)c12 [norbaeocystin, 4-phosphoryloxy-tryptamine]",neurite outgrowth in PC12 cells,[1],induce neurite outgrowth
same,expression of NGF protein,[7],increased expression of NGF protein; also recorded: induces the expression; also recorded: induction of NGF protein
"COc1cc(CC(C)N)c(OC)cc1I (centres unmarked) [DOI, 2,5-dimethoxy-4-iodoamphetamine]",neurogenesis,[6],promoted neurogenesis
"CCN(CC)C(=O)[C@@H]1C=C2c3cccc4[nH]cc(c34)C[C@H]2N(C)C1 [LSD, N,N-diethyl-D-lysergamide]",neurogenesis,[6],promoted neurogenesis
CC(=O)O[C@@H]1C[C@@H]2C3=C(C(C)C)CC[C@]3(C)CC[C@@]2(C)[C@@H](O[C@@H]2OC[C@@H](O)[C@H](O)[C@H]2O)C=C1C=O [P],inhibition of gliomas,[8],inhibitors of gliomas
